US9969688B2, “Roflumilast prodrugs” (HISAMITSU PHARMACEUTICAL CO., INC., priority 2014, dated 2018)
≈ marks a conversion by molar mass, not a printed value.

What was measured:
[1] = Evaluation test of water solubility (saturated solubility); format: physicochemical; details: phosphate buffer (pH 7); for solubility at 30 min: aqueous buffer, thermodynamic from solid, ultrasonicated 30 minutes
Protocol: An excessive amount of a test compound was added to 10 mL of phosphate buffer (pH 7) and the resultant was ultrasonicated for 30 minutes. The resulting suspension was filtered and 0.5 mL of acetonitrile was added to 0.5 mL of the filtrate to obtain a test solution. The concentration of the test compound in the test solution was determined by high performance liquid chromatography to calculate the saturated solubility. Roflumilast was used in Comparative Example 1.

[2] = Evaluation test of skin permeability (Franz diffusion cell); format: in vitro ADME; details: hairless mouse skin; for Jmax (maximum skin permeation rate) / Cumulative Amount of Permeation for 24 hours: 1 w/w % in dimethyl sulfoxide, 100 μL, 32° C.
Protocol: Skin was excised from the back of a hairless mouse and the section of the skin was placed in a Franz diffusion cell (glass cell) so that a solution of each of test compounds (compounds of Examples, Comparative Example, or Reference Examples) was contacted with the epidermal side of the section of the skin (applied area: 1 cm^2). Phosphate buffered physiological saline (PBS) was used as a flow solution. The flow rate was set to 5 mL/hour and the temperature of thermoregulated bath was set to 32° C. Next, dimethyl sulfoxide was added to achieve the concentration of the test compound of 1 w/w % and the resultant was stirred thoroughly to prepare a solution of the test compound. The donor chamber of the Franz diffusion cell was charged with 100 μL of the resulting solution of the test compound. The flow solution was sampled every 2 hours until 24 hours after the charge of the test compound solution. The flow solutions sampled every 2 hours were diluted two-fold by adding acetonitrile and the diluted solution was centrifuged to give supernatants as an HPLC analytical sample. Each of the resulting analytical samples was analyzed by high performance liquid chromatography to calculate the maximum skin permeation rate (Jmax) and the cumulative amount of permeation for 24 hours. Roflumilast was used in Comparative Example 1.

[3] = tested on: human liver enzyme fraction; assay: In vitro metabolism test (metabolic rate into roflumilast); format: in vitro ADME; details: treated with human liver enzyme fractions
Protocol: A human liver enzyme fraction was added to 100 mmol/L Tris-HCl buffer containing coenzymes (NADPH-producing) so as to achieve the concentration of 0.5 mg protein/mL and the resultant was pre-incubated at 37° C. for 5 minutes. A test compound was added to this solution so as to achieve the concentration of 0.1 μmol/L and the resultant was incubated at 37° C. for an hour. The reaction was then stopped by adding water-cooled acetonitrile. The resulting solution was filtered and then quantified by using LC-MS/MS to calculate the metabolic rate (%) into roflumilast. It is noted that “with heat treatment” in Table 1 means using a human liver enzyme fraction subjected to heat treatment before adding to thereby inactivate a metabolic enzyme therein.
Numerical values in Table 1 represent metabolic rates (%) into rofiumilast. […] Roflumilast was not produced when metabolic enzymes were inactivated by heat treatments prior to using the human liver enzyme fractions.

| Structure (SMILES) | solubility at 30 min [1] [µg/mL] | Ratio to Roflumilast (saturated solubility) [1] | Jmax (maximum skin permeation rate) [2] [μg/cm^2/hr] | Cumulative Amount of Permeation for 24 hours [2] [μg/cm^2] | skin permeability (in words) ([2]; up to 24 hours) | production of roflumilast by human liver enzyme fractions (in words) [3] |
| --- | --- | --- | --- | --- | --- | --- |
| O=C(Nc1c(Cl)cncc1Cl)c1ccc(OC(F)F)c(OCC2CC2)c1 [Comparative Example 1, N-(3,5-dichloropyrid-4-yl)-3-cyclopropylmethoxy-4-difluoromethoxybenzamide, reference compound] | 0.373 (≈ 0.925 µM) | 1 | 0.0 | 0.0 | no skin permeability even after 24 hours |  |
| N#CCN(C(=O)c1ccc(OC(F)F)c(OCC2CC2)c1)c1c(Cl)cncc1Cl [Example 1, N-cyanomethyl-N-(3,5-dichloropyrid-4-yl)-3-cyclopropylmethoxy-4-difluoromethoxybenzamide] | 1.64 (≈ 3.72 µM) | 4.4 | 1.2 | 12.1 |  |  |
| O=C(c1ccc(OC(F)F)c(OCC2CC2)c1)N(CCO)c1c(Cl)cncc1Cl [Example 2, N-(3,5-dichloropyrid-4-yl)-N-(2-hydroxyethyl)-3-cyclopropylmethoxy-4-difluoromethoxybenzamide] | 12.5 (≈ 27.9 µM) | 33.4 | 10.7 | 157.7 |  |  |
| CN(C(=O)c1ccc(OC(F)F)c(OCC2CC2)c1)c1c(Cl)cncc1Cl [Example 3, N-(3,5-dichloropyrid-4-yl)-N-methyl-3-cyclopropylmethoxy-4-difluoromethoxybenzamide] | 9.7 (≈ 23.2 µM) | 26.0 | 3.2 | 51.0 |  |  |
| O=C(c1ccc(OC(F)F)c(OCC2CC2)c1)N(CCCO)c1c(Cl)cncc1Cl [Example 5, N-(3,5-dichloropyrid-4-yl)-N-(3-hydroxypropan-1-yl)-3-cyclopropylmethoxy-4-difluoromethoxybenzamide] |  |  | 8.5 | 163.5 |  |  |
| COCN(C(=O)c1ccc(OC(F)F)c(OCC2CC2)c1)c1c(Cl)cncc1Cl [Example 6, N-(3,5-dichloropyrid-4-yl)-N-methoxymethyl-3-cyclopropylmethoxy-4-difluoromethoxybenzamide] |  |  | 1.2 | 17.6 |  |  |
| NC(=O)CN(C(=O)c1ccc(OC(F)F)c(OCC2CC2)c1)c1c(Cl)cncc1Cl [Reference Example 1, N-carbamoylmethyl-N-(3,5-dichloropyrid-4-yl)-3-cyclopropylmethoxy-4-difluoromethoxybenzamide, reference compound] | 16.6 (≈ 36 µM) | 44.5 | 0.9 | 7.2 |  | did not produce roflumilast |
| O=C(O)CN(C(=O)c1ccc(OC(F)F)c(OCC2CC2)c1)c1c(Cl)cncc1Cl [Reference Example 2, N-carboxymethyl-N-(3,5-dichloropyrid-4-yl)-3-cyclopropylmethoxy-4-difluoromethoxybenzamide, reference compound] | 612 (≈ 1330 µM) | 1640.2 | 9.5 | 56.9 |  | did not produce roflumilast |
